Experimental data: paper PMC8145596, “Novel Chemically Modified Curcumin (CMC) Derivatives Inhibit Tyrosinase Activity and Melanin Synthesis in B16F10 Mouse Melanoma Cells” (Biomolecules, 2021)
Entries after “also recorded” stand apart in the source; their conditions may differ.

What was measured:
[1] = tested on: B16F10 mouse melanoma cells; assay: MTS cell viability assay; format: cell-based; settings: for cytotoxicity / cell viability: 48 h; for cytotoxicity: B16F10, full concentration range; for cell viability: B16F10
Experimental: B16F10 mouse melanoma cells (CRL-6475™) were obtained from American Type Culture Collection (ATCC, Manassas, VA, USA) and cultured using Dulbecco’s Modified Eagle Medium (DMEM) supplemented with 10% heat-inactivated fetal bovine serum (HI-FBS) and 1% antibiotics (penicillin-streptomycin) in a humidified incubator with 95% air—5% CO2 at 37 °C. In order to test the four CMCs (CMC2.14, CMC2.24, CMC2.5 and CMC2.23) to that of PC, for their effects on melanin content, we first screened them for cytotoxicity using a tetrazolium assay with MTS (Promega CellTiter Aqueous One). Briefly, B16F10 cells were seeded at 4 × 10^3 cells/well in a 96-well plate for 24 h. The compounds were diluted using culture medium to yield a final DMSO in all groups of 0.16% and added to the cell monolayers in wells after 24 h. Control was treated with 0.16% DMSO. At the end of 48 h, the medium was aspirated and replaced by 100 μL of fresh medium. 20 μL of MTS reagent was then added, and the plate was incubated at 37 °C for 40 min. At this point, the absorbance of 100 μL aliquots was read at 490 nm using a microplate reader. Cell viability was calculated from the absorbance values relative to control groups and expressed in %.

[2] = tested on: cAMP levels in B16F10 cells; assay: cAMP levels by competitive ELISA in B16F10 lysates; format: cell-based, mouse; settings: for effect on cAMP levels: all concentrations tested
Description: For assaying the levels of cAMP in B16F10 cellular lysates, a competitive ELISA (Enzo Life Sciences, Farmingdale, NY, USA) was used in non-acetylated format based on manufacturer instructions.

[3] = tested on: MITF protein in B16F10 cells; assay: MITF protein levels by cell-based ELISA; parameters: species or system mouse; settings: 48 h
Experimental: Microphthalmia Transcription Factor (MITF), a known transcription factor for the tyrosinase gene, is a master regulator of melanogenesis and is activated by cyclic adenosine monophosphate (cAMP) signaling after UV irradiation, reflecting the role of cAMP as a key maturation factor in melanogenesis. The effects of PC and CMCs on MITF protein levels were assayed using a cell-based ELISA (Lifespan Biosciences, Seattle, WA, USA). Briefly, B16F10 cells were cultured in a 96-well plate at 1 × 10^4 cells/well for 24 h and then the medium was replaced with fresh medium containing compounds in 0.1% DMSO and cultures maintained for further 48 h. The cells were then fixed, and subsequent steps were conducted according to the manufacturers’ instructions. MITF protein levels were normalized to cell density by measuring the absorbance of crystal violet stain added to the fixed cells and the data was reported as % of control.

mushroom tyrosinase [4] = target: T1, mushroom tyrosinase (Agaricus bisporus, UniProt C7FF04); assay: Diphenolase activity assay of mushroom tyrosinase (L-DOPA substrate); format: biochemical; settings: for diphenolase inhibitory potency: compared with CMC2.24; for mechanism of inhibition of diphenolase activity: L-B and Dixon plots, nonlinear curve fitting; for Ki: read-out: apparent Ki, diphenolase (L-DOPA)
T1 sequence (C7FF04 1-392): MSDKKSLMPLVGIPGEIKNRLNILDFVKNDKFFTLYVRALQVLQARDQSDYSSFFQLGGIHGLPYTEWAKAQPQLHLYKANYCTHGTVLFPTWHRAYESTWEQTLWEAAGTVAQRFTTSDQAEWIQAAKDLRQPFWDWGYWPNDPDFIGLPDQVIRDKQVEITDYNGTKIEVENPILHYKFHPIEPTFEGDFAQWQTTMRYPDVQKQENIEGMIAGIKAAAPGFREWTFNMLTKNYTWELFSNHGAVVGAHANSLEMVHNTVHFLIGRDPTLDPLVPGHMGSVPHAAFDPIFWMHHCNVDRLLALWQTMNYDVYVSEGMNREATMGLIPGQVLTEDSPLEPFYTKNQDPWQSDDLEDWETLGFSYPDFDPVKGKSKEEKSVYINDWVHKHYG
Experimental: The direct effects of the compounds on the diphenolase activity of tyrosinase were tested using mushroom tyrosinase with a fixed concentration of L-DOPA as the substrate. Briefly, 80 µL of each compound prepared at different concentrations in 50 mM sodium phosphate buffer (pH 6.8) was added to wells of a 96-well microplate, followed by 100 µL of freshly prepared substrate solution (3 mM L-DOPA in buffer). The reaction was initiated by adding 20 µL of mushroom tyrosinase (final concentration of enzyme in wells was 3.5 µg/mL). The production of Dopachrome was monitored by measuring the absorbance at 475 nm every 30 s for a period of 30 min at 30 °C, using a microplate reader in the kinetic mode. The slopes of the plots of absorbance vs. time were calculated for comparison of enzyme activity in the presence of each of the inhibitors to that of the inhibitor-free control.
(§1) In order to study the mechanism of inhibition of tyrosinase activity by the compounds as a function of substrate concentration, we conducted a kinetic study of monophenolase and diphenolase activities at multiple concentrations of substrates. For the monophenolase activity assay, the final concentration of enzyme was 12.5 µg/mL and the final substrate concentrations were 0.125, 0.25, 0.5 and 1 mM, while for diphenolase activity assay, the final concentration of enzyme was 3.5 µg/mL and the final substrate concentrations ranged from 0.1–3 mM. The slopes from the linear range of the progress curves of absorbance at 475 nm vs. time were recorded as apparent velocities and the reciprocal values, 1/v, were plotted as functions of the reciprocal values of the substrate concentrations at different fixed inhibitor concentrations according to the method of Lineweaver and Burk (L-B). Dixon plots of the reciprocal velocity values, (1/v), as functions of the inhibitor concentrations at different fixed substrate concentrations were also constructed to investigate further the apparent mode of inhibition by the compounds.
(§2) We have also analyzed the inhibition data using nonlinear curve fitting algorithms which are more robust than the linearized L-B and Dixon plotting methods that can weigh the data from evenly spaced concentrations disproportionately. The inhibition constants were calculated by non-linear least squares curve fitting using a modified Levenberg-Marquardt algorithm and data was fitted to models of pure competitive, noncompetitive, and uncompetitive inhibition using Enzfitter software (version 2.0, Biosoft, Cambridge, UK). This analysis was undertaken to assess the apparent potency of compounds, PC, CMC2.24, and CMC2.23 for each putative mode of inhibition.

mushroom tyrosinase [5] = target: T1, mushroom tyrosinase; assay: Monophenolase activity assay of mushroom tyrosinase (L-Tyrosine substrate); format: biochemical; settings: for mechanism of inhibition of monophenolase activity: L-B and Dixon plots, nonlinear curve fitting; for Ki: read-out: apparent Ki, monophenolase (L-TYR)
Experimental: The direct effects of the compounds on the monophenolase activity of tyrosinase were tested using mushroom tyrosinase enzyme with a fixed concentration of L-Tyrosine (L-Tyr) as the substrate. Briefly, 80 µL of compounds prepared at different concentrations in 50 mM sodium phosphate (pH 6.8) buffer were added to wells of a 96-well microplate followed by 100 µL of 2 mM L-Tyr solution. The reaction was initiated by adding 20 µL of mushroom tyrosinase (final concentration of enzyme in wells was 12.5 µg/mL) and was monitored by measuring absorbance at 475 nm every 30 s over a 30 min period, using a microplate reader (Versamax®) in the kinetic mode. The slopes of the plots of absorbance vs. time were calculated for comparison of enzyme activity in the presence of each of the inhibitors to that of an inhibitor-free control and reported as percentage of control activity (%).
as §1, §2

[6] = fit to pure competitive inhibition
[7] = fit to pure noncompetitive inhibition
[8] = fit to pure uncompetitive inhibition

COC(=O)/C(C(=O)/C=C/c1ccc(O)c(OC)c1)=C(O)\C=C\c1ccc(O)c(OC)c1 [CMC2.5, 4-methoxycarbonyl curcumin]
cytotoxicity [1]: nontoxic over the full concentration range | effect on cAMP levels ([2]; 48 h): did not affect cAMP levels at any concentration | attenuation of MITF protein levels ([3]; 20 µM): 32.17% | attenuation of MITF protein levels ([3]; 25 µM): 35.4% | diphenolase inhibitory potency (mushroom tyrosinase [4]): somewhat weaker inhibitory potency

COc1cc(/C=C/C(=O)/C(C(=O)Nc2ccccc2)=C(O)/C=C/c2ccc(O)c(OC)c2)ccc1O [CMC2.23]
cytotoxicity [1]: nontoxic over the full concentration range | effect on cAMP levels ([2]; 48 h): did not affect cAMP levels at any concentration | attenuation of MITF protein levels ([3]; 10 µM): 32.27% | attenuation of MITF protein levels ([3]; 20 µM): 39.29% | attenuation of MITF protein levels ([3]; 25 µM): 37.22% | mechanism of inhibition of diphenolase activity (mushroom tyrosinase [4]): mixed mechanism of inhibition; also recorded: mixed, but predominantly competitive, mode of inhibition | diphenolase inhibitory potency (mushroom tyrosinase [4]): somewhat weaker inhibitory potency | Vmax, diphenolase (L-DOPA) (mushroom tyrosinase [4]; competitive model fit): 38.0 mM/min | Vmax, diphenolase (L-DOPA) (mushroom tyrosinase [4]; noncompetitive model fit): 39.05 mM/min | Vmax, diphenolase (L-DOPA) (mushroom tyrosinase [4]; uncompetitive model fit): 39.0 mM/min | mechanism of inhibition of monophenolase activity (mushroom tyrosinase [5]): mixed, but predominantly competitive, mode of inhibition

O=C(/C=C/c1ccc(O)cc1)/C(C(=O)Nc1ccccc1)=C(O)/C=C/c1ccc(O)cc1 [CMC2.24]
cytotoxicity [1]: nontoxic over the full concentration range | attenuation of cAMP levels ([2]; 10 µM, 48 h (not significant)): 18.13% | attenuation of cAMP levels ([2]; 20 µM, 48 h): 38.18% | attenuation of cAMP levels ([2]; 25 µM, 48 h): 49.42% | attenuation of MITF protein levels ([3]; 10 µM): 28.39% | attenuation of MITF protein levels ([3]; 20 µM): 31.79% | attenuation of MITF protein levels ([3]; 25 µM): 38.84% | inhibition at 20 µM (mushroom tyrosinase [4]; 20 μM compound): 35.4% | inhibition at 25 µM (mushroom tyrosinase [4]; 25 μM compound): 38.2% | mechanism of inhibition of diphenolase activity (mushroom tyrosinase [4]): mixed mode of inhibition with a predominantly competitive mechanism | Vmax, diphenolase (L-DOPA) (mushroom tyrosinase [4]; competitive model fit): 36.0 mM/min | Vmax, diphenolase (L-DOPA) (mushroom tyrosinase [4]; noncompetitive model fit): 43.69 mM/min | Vmax, diphenolase (L-DOPA) (mushroom tyrosinase [4]; uncompetitive model fit): 41.99 mM/min | inhibition at 5 µM (mushroom tyrosinase [5]; 5 μM compound, 1 mM L-Tyr final): 32.1% | inhibition at 10 µM (mushroom tyrosinase [5]; 10 μM compound): 34.7% | inhibition at 20 µM (mushroom tyrosinase [5]; 20 μM compound): 34.8% | inhibition at 25 µM (mushroom tyrosinase [5]; 25 μM compound): 37% | mechanism of inhibition of monophenolase activity (mushroom tyrosinase [5]): mixed mode of inhibition with a predominantly competitive mechanism

COC(=O)/C(C(=O)/C=C/c1ccc(O)cc1)=C(O)\C=C\c1ccc(O)cc1 [CMC2.14]
effect on cAMP levels ([2]; 48 h): did not affect cAMP levels at any concentration | attenuation of MITF protein levels ([3]; 10 µM): 23.67% | diphenolase inhibitory potency (mushroom tyrosinase [4]): somewhat weaker inhibitory potency

1,7-bis(4-hydroxy-3-methoxyphenyl)-1,6-heptadien-3,5-dione [PC, reference compound]
cell viability ([1]; 20 µM): 29.47% | cell viability ([1]; 25 µM): 30.83% | concentrations with significant cytotoxicity ([1]; B16F10, 48 h): > 10 µM | effect on cAMP levels ([2]; 48 h): trend for attenuation of cAMP levels, but the levels were not significant | attenuation of MITF protein levels ([3]; 10 µM): 28.62% | inhibition of diphenolase activity (mushroom tyrosinase [4]; 5 μM compound): 14.47% | inhibition of diphenolase activity (mushroom tyrosinase [4]; 10 μM compound): 12.41% | inhibition of diphenolase activity (mushroom tyrosinase [4]; 20 μM compound): 14.19% | inhibition of diphenolase activity (mushroom tyrosinase [4]; 25 μM compound): 16.39% | mechanism of inhibition of diphenolase activity (mushroom tyrosinase [4]): not a pure competitive inhibitor; also recorded: mixed inhibitor | Vmax, diphenolase (L-DOPA) (mushroom tyrosinase [4]; competitive model fit): 44.67 mM/min | Ki (mushroom tyrosinase [4]; [6]): 45.1 µM | Ki (mushroom tyrosinase [4]; [7]): 164 µM | Ki (mushroom tyrosinase [4]; [8]): 129 µM | IC50 (mushroom tyrosinase [4]; fixed substrate concentration (L-DOPA), read-out: IC50 for Diphenolase inhibition): 299 ± 35.6 µM | Vmax, diphenolase (L-DOPA) (mushroom tyrosinase [4]; noncompetitive model fit): 48.28 mM/min | Vmax, diphenolase (L-DOPA) (mushroom tyrosinase [4]; uncompetitive model fit): 47.52 mM/min | inhibition of monophenolase activity (mushroom tyrosinase [5]; 10 μM compound): 14.41% | inhibition of monophenolase activity (mushroom tyrosinase [5]; 20 μM compound): 21.31% | inhibition of monophenolase activity (mushroom tyrosinase [5]; 25 μM compound): 22.10% | mechanism of inhibition of monophenolase activity (mushroom tyrosinase [5]): not a pure competitive inhibitor; also recorded: mixed inhibitor | Ki (mushroom tyrosinase [5]; [6]): 7.74 µM | Ki (mushroom tyrosinase [5]; [7]): 50.8 µM | Ki (mushroom tyrosinase [5]; [8]): 40.2 µM | IC50 (mushroom tyrosinase [5]; fixed substrate concentration (L-Tyr), read-out: IC50 for Monophenolase Inhibition): 67 ± 2.4 µM
